Assay results taken from patent EP2068152A1, “c-Kit as a novel target for the treatment of pain” (Max-Delbrück-Centrum für Molekulare Medizin (MDC), priority 2007, dated 2009).

Assays:
c-Kit = experiment: Paw withdrawal test (radiant heat); assay type: in vivo, mice
Method: Paw withdrawal test. In the radiant paw-withdrawal test the mice were placed in a Plexiglas chamber (15 cm diameter, 22.5 cm in height). The stimulus was a high intensity beam directed at the plantar surface of the hindpaw; movement of the paw away from the beam results in the heat source being terminated, with the withdrawal latency indicated on a digital screen (Ugo Basile, Milan, Italy). Paw withdrawal latencies were determined alternately from both hindpaws (stimuli given every 30- 40 s). Criteria for inclusion of a data point were calm behavior of the mouse just prior to testing, and a clear paw withdrawal from the hot beam associated with paw flicking and grooming. Baseline values were taken once a day at the same time for a period of 3 days. c-Kit ligand (Stem Cell Factor, SCF, R&D Systems) was injected once intraperitoneally (1 mg/kg i.p.) into TRPV1 -l- and control C57B1/6 mice (adult females, 6- 8 weeks, 20-25 g body weight), and response latencies to radiant heating of the hind paw was measured at various times after injection as described.
The inventors therefore used the mast cell degranulating agent 48/80 to deplete resident mast cells of neuroactive substances prior to the administration of SCF.

C-fiber nociceptors = experiment: In vitro skin nerve preparation: noxious heat response of CMH fibers from treated mice; assay type: in vivo
Method: The conduction velocity cut-off between Aβ and Aδ fibers was determined to be 9 m/s in c-Kit mutants based on measurements of the Aβ and Aδ wave in compound action potential recordings as previously described (Koltzenburg et al., 1997).

Aβ mechanoreceptors = conditions: animals treated as adults with imatinib

Cc1ccc(NC(=O)c2ccc(CN3CCN(C)CC3)cc2)cc1Nc1nccc(-c2cccnc2)n1 [imatinib, 4-[(4-Methyl-1-piperazinyl)methyl]-N-[4-methyl-3-[[4-(3-pyridinyl)-2-pyrimidinyl]amino]-phenyl]benzamide]
foot withdrawal latency to noxious heat (c-Kit; 5 days after daily imatinib treatment, 0.1 mg/g sub-cutaneously, n=6, vehicle treated mice 129 ±35%): 160 ±39 % of starting values
thermal hyperalgesia after SCF in pre-treated mice (c-Kit; two subcutaneous injections (0.1 mg/g) 18 hrs and 1 hr before SCF (1 µg/g, i.p.)): did not display any significant thermal hyperalgesia
C-fiber heat sensitivity (C-fiber nociceptors; imatinib 0.1 mg/g sub-cutaneously for 6-7 days): reduction in C-fiber heat sensitivity that was almost identical to that found in c-Kit^-/- and c-Kit^+/- mice
number of spikes per 1 second time window during the heat ramp (CMH fibers), curve versus control (C-fiber nociceptors; imatinib treated adult mice, heat ramp 32°C to 60°C, Two way ANOVA F=7.67 p<0.01): significantly different from control
fibers with responses >60 spikes/stimulus (high responders) (C-fiber nociceptors; imatinib treated mice, figure stated together with c-kit mutant mice, control C-fibers 47%): ~16%
proportion of RAM and SAM receptors (Aβ mechanoreceptors): no change in proportion of RAM and SAM receptors
